Assay results: paper doi:10.1101/2023.11.24.568596v1 (biorxiv, 2023)
One block for each compound: values may come before it.

Columns and labels:
Settings in all cases: binder
[1] = molecular target: SLK (Homo sapiens, UniProt Q9H2G2)
[2] = molecular target: SRC (Homo sapiens, UniProt P12931)
[3] = molecular target: SRPK1 (Homo sapiens, UniProt Q96SB4)
[4] = molecular target: T1, TTK (Homo sapiens, UniProt P33981)
T1 sequence (P33981 1-857): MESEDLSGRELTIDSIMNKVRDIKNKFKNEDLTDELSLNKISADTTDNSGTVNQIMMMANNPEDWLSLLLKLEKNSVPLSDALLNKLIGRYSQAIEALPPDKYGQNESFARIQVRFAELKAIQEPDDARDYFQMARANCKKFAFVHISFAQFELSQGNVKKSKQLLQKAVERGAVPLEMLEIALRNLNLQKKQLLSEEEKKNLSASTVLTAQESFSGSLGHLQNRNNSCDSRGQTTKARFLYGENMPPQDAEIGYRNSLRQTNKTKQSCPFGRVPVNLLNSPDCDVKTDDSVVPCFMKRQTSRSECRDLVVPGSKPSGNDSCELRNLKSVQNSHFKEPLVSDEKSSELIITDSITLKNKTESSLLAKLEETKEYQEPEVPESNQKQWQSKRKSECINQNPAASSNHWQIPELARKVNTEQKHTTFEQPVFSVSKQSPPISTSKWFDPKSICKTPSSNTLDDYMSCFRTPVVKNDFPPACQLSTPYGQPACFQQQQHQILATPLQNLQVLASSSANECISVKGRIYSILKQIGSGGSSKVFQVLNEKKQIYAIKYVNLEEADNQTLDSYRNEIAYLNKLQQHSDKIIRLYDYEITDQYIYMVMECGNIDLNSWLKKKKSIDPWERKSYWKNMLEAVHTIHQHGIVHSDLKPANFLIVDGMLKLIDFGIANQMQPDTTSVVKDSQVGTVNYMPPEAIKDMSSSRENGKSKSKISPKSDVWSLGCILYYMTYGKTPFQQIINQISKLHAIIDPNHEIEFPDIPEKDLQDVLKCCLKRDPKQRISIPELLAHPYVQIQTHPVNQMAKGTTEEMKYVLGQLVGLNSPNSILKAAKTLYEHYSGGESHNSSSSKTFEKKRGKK

[5] = molecular target: T2, VRK1 (Homo sapiens, UniProt Q99986)
T2 sequence (Q99986 1-396): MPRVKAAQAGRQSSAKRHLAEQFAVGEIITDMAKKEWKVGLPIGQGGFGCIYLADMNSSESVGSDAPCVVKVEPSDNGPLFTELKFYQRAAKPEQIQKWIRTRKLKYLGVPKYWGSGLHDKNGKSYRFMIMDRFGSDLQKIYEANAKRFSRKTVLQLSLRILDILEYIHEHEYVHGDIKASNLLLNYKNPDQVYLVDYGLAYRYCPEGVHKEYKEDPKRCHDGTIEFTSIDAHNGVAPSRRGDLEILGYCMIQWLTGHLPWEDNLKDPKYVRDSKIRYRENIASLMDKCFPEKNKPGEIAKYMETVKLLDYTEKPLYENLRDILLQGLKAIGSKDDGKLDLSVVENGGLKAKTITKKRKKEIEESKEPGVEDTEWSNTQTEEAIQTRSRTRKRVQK

SRC, sequence (P12931 whole entry): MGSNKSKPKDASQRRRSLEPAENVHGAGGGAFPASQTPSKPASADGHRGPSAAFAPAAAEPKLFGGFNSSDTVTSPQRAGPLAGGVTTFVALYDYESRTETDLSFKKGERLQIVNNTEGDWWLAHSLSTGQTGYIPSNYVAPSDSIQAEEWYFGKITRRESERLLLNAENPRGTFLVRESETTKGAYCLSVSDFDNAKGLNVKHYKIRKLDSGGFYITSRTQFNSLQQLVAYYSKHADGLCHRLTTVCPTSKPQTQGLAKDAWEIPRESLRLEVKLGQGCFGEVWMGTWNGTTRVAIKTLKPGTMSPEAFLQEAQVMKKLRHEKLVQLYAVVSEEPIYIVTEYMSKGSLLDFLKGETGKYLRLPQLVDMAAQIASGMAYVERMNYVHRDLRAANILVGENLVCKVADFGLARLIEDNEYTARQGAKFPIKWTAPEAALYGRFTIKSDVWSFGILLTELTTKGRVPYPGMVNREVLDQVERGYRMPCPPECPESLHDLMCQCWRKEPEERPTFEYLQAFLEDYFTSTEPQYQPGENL
SRPK1, sequence (Q96SB4 whole entry): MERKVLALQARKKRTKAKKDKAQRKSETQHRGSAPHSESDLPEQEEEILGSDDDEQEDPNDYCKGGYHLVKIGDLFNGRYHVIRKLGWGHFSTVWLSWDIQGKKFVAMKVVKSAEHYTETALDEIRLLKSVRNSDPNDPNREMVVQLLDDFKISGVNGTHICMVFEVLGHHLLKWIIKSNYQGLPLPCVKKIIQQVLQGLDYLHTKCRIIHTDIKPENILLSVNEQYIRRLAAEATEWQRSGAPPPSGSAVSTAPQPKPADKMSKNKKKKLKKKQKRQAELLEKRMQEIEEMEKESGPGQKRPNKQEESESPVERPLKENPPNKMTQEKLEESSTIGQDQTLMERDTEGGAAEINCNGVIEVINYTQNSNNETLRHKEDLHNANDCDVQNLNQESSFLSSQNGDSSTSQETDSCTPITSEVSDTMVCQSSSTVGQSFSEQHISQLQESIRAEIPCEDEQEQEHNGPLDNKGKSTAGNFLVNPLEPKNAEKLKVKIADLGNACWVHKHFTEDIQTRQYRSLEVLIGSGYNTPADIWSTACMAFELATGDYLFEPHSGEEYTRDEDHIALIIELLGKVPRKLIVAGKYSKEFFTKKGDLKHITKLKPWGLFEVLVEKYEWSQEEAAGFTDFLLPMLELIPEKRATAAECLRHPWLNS
SLK, sequence (Q9H2G2 whole entry): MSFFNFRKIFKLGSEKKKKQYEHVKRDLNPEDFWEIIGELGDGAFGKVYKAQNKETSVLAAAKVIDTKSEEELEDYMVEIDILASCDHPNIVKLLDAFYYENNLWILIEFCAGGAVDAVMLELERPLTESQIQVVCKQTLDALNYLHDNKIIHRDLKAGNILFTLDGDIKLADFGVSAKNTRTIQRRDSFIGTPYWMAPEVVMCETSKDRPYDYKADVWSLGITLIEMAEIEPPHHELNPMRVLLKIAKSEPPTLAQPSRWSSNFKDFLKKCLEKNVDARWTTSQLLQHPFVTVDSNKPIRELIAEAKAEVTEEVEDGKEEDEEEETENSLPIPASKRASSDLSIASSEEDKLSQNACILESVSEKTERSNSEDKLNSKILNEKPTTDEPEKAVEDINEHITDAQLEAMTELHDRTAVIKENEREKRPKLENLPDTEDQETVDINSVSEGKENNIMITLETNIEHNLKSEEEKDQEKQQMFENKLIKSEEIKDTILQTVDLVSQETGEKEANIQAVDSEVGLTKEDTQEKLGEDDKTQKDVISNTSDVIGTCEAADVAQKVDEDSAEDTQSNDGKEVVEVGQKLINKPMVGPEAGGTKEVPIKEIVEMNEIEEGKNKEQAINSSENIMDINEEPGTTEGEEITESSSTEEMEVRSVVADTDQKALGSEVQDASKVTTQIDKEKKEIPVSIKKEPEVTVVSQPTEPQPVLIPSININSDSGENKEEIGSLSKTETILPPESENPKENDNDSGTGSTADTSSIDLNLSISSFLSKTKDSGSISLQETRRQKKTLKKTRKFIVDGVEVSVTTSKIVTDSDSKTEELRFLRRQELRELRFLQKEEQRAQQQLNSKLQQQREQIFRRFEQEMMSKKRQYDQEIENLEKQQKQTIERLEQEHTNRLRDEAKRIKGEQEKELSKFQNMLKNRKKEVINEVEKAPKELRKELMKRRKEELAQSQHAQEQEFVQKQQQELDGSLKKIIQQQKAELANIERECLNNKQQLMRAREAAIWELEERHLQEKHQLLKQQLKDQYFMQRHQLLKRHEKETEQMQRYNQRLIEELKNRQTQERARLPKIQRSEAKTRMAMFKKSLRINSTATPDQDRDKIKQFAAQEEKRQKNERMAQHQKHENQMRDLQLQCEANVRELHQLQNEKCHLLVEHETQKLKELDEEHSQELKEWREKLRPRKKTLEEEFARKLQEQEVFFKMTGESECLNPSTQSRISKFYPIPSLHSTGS

SMILES: Cc1cccc(-c2ccc(-c3cc4cnc(Nc5ccc(C)c(O)c5)nc4n(CCCCN)c3=O)c(Cl)c2)n1 [compound 32, 8-(4-Aminobutyl)-6-(2-chloro-4-(6-methylpyridin-2-yl)phenyl)-2-((3-hydroxy-4-methylphenyl)amino)pyrido[2,3-d]pyrimidin-7(8H)-one]
- ΔTm 32 [1]: 7.8 °C
- ΔTm 32 [2]: 5.1 °C
- ΔTm 32 [3]: 0.4 °C
- ΔTm 32 [4]: 2.2 °C
- ΔTm 32 [5]: 0.8 °C

SMILES: Cc1cccc(-c2ccc(-c3cc4cnc(Nc5ccc(O)cc5)nc4n(CCCCN)c3=O)c(Cl)c2)n1 [compound 31, 8-(4-Aminobutyl)-6-(2-chloro-4-(6-methylpyridin-2-yl)phenyl)-2-((4-hydroxyphenyl)amino) pyrido[2,3-d]pyrimidin-7(8H)-one]
- ΔTm 31 [1]: 7.7 °C
- ΔTm 31 [2]: 5.0 °C
- ΔTm 31 [3]: 0.3 °C
- ΔTm 31 [4]: 5.1 °C
- ΔTm 31 [5]: 0.9 °C

SMILES: Cc1cccc(-c2ccc(-c3cc4cnc(Nc5cc(C(F)(F)F)ccc5C)nc4n(CCCCN)c3=O)c(Cl)c2)n1 [compound 28, 8-(4-Aminobutyl)-6-(2-chloro-4-(6-methylpyridin-2-yl)phenyl)-2-((2-methyl-5-(trifluoromethyl)phenyl)amino)pyrido[2,3-d]pyrimidin-7(8H)-one]
- ΔTm 28 [1]: 4.5 °C
- ΔTm 28 [2]: 3.4 °C
- ΔTm 28 [3]: 0.1 °C
- ΔTm 28 [4]: -11.0 °C
- ΔTm 28 [5]: 0.8 °C

SMILES: Cc1cccc(-c2ccc(-c3cc4cnc(NCCCN5CCNCC5)nc4n(CCCCN)c3=O)c(Cl)c2)n1 [compound 29, 8-(4-Aminobutyl)-6-(2-chloro-4-(6-methylpyridin-2-yl)phenyl)-2-((3-(piperazin-1-yl)propyl)amino)pyrido[2,3-d]pyrimidin-7(8H)-one]
- ΔTm 29 [1]: 3.5 °C
- ΔTm 29 [2]: 1.9 °C
- ΔTm 29 [3]: 0.1 °C
- ΔTm 29 [4]: -0.4 °C
- ΔTm 29 [5]: 0.4 °C

Other lines, results leading:

- ΔTm MR30 (27) [1]: 2.6 °C
- ΔTm MR30 (27) [2]: -0.5 °C
- ΔTm MR30 (27) [3]: -0.2 °C
- ΔTm MR30 (27) [4]: -0.3 °C
- ΔTm MR30 (27) [5]: -0.1 °C
SMILES: Cc1cccc(-c2ccc(-c3cc4cnc(NCCCN5CCCC5=O)nc4n(CCCCN)c3=O)c(Cl)c2)n1 [compound 27, MR30]

- ΔTm 30 [1]: 8.6 °C
- ΔTm 30 [2]: 4.6 °C
- ΔTm 30 [3]: 0.0 °C
- ΔTm 30 [4]: 5.6 °C
- ΔTm 30 [5]: 0.3 °C
SMILES: Cc1cccc(-c2ccc(-c3cc4cnc(Nc5ccc(CCCO)cc5)nc4n(CCCCN)c3=O)c(Cl)c2)n1 [compound 30, 8-(4-Aminobutyl)-6-(2-chloro-4-(6-methylpyridin-2-yl)phenyl)-2-((4-(3-hydroxypropyl)phenyl)amino)pyrido[2,3-d]pyrimidin-7(8H)-one]
